Reference: paper doi:10.1101/2024.09.09.611999v1 (biorxiv, 2024)
Positions count from the first letter of the chain named. Like-named read-outs stand apart in the source and are kept apart here.

How the values were obtained:
[1] = target: T1, overexpressed PRDX6 (Homo sapiens, UniProt P30041); assay: H2O2 clearance; type: cell-based
T1 sequence (P30041 2-224): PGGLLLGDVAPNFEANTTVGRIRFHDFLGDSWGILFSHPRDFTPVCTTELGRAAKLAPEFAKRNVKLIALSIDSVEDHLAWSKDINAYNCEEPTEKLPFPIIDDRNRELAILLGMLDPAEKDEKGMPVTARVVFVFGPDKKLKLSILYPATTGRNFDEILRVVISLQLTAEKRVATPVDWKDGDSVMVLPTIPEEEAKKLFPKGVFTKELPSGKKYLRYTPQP

[2] = target: T2, PRDX6 with GFP tag (Homo sapiens, UniProt P30041, C91A); assay: cellular microscale thermophoresis, GFP fusion
T2 sequence (P30041 2-224 C91A): T1 sequence (P30041 2-224) with C90A

[3] = target: T3, PRDX6 with GFP tag (Homo sapiens, UniProt P30041, E210A); assay: cellular microscale thermophoresis, GFP fusion
T3 sequence (P30041 2-224 E210A): T1 sequence (P30041 2-224) with E209A

| Compound | IC50 ([1]; substrate H2O2) [µM] | IC50 [1] [µM] | Kd [2] [µM] | Kd [3] [µM] |
| --- | --- | --- | --- | --- |
| CC(=O)N[C@@H](CS)C(=O)O [NAC, reference compound] | 15.5 | – | – | – |
| O=c1cc(-c2ccc(O)cc2)oc2cc(O)cc(O)c12 [apigenin, 4’,5,7-trihydroxyflavone] | – | 49.5 | 10.9 | 14.5 |
